Data set [1] relates to human dermal microvascular endothelial cells (HDMEC). As to the kind of experiment: HDMEC cytotoxicity assay. In kind it is cell-based. The note with it: concentration at 50% cytotoxicity.
The subject of the next data set is C. albicans ATCC90028. As to the kind of experiment: CO-ADD antifungal screening, MIC. Type of data set: cell-based, Candida albicans. The conditions noted are these: yeast nitrogen base, 2.5 × 10^3 CFU/mL, 35 °C 24 h, OD530, n=2.
In data set [2] the test system is human embryonic kidney cells (HEK 293). As to the kind of experiment: HEK 293 cytotoxicity assay. In kind it is cell-based. The note with it: concentration at 50% cytotoxicity, CO-ADD.
Another data set deals with E. coli. The conditions noted are these: ref [58]; cited from earlier work.
For the next data set, the system named is S. aureus. The note with it: ref [58]; cited from earlier work.

The text below walks through data of paper PMC7547863 (Biochemistry, 2020).

No end group written: not given here.

With “GLFDIVKKVVGALG-NH2 [Au2.2d2, reference compound]”, the “HDMEC (CC50)” value in data set [1] stood at 64 µM. For the same substance, the “MIC C. albicans ATCC90028*” value against C. albicans ATCC90028 was over 23 µM.
GLFDIVKKVVGALK-NH2 [compound 9]: the “HDMEC (CC50)” value in data set [1] turned out to be 103 µM. The “MIC C. albicans ATCC90028*” value in the data set with C. albicans ATCC90028 is over 22 µM.
For GLFDIVKKVVGLLK-NH2 [compound 8] the same measures were 28 µM and over 21 µM.
On to GLFDIVKKVVKLLK-NH2 [compound 7], for which the “HDMEC (CC50)” value in data set [1] worked out at 236 µM. For the same substance, the “MIC C. albicans ATCC90028*” value against C. albicans ATCC90028 was over 20 µM.
For GLFKLLKKLLKLLK-NH2 [compound 2], the “HDMEC (CC50)” value in data set [1] was 2 µM. For the same substance, the “HEK293 (CC50)” value in data set [2] is over 19 µM. Besides, the “MIC C. albicans ATCC90028*” value against C. albicans ATCC90028 was over 20 µM.
For KLLKLLKKLLGALG-NH2 [compound 16], in data set [1], the “HDMEC (CC50)” value worked out at 8 µM. In addition, the “HEK293 (CC50)” value in data set [2] was found to be 7 µM. Moreover, in the data set with C. albicans ATCC90028, the “MIC C. albicans ATCC90028*” value was determined as 11 µM.
With KLLKLLKKLLKALG-NH2 [compound 17], in data set [1], the “HDMEC (CC50)” value came to 4 µM. In data set [2], the “HEK293 (CC50)” value was over 20 µM. In the data set on C. albicans ATCC90028, the “MIC C. albicans ATCC90028*” value worked out at 20 µM.
Consider “KLLKLLKKLLKLLK-NH2 [Klk14, reference compound]”, for which the “HDMEC (CC50)” value in data set [1] turned out to be 3 µM. The “HEK293 (CC50)” value in data set [2] turned out to be 10 µM. Also, in the data set with C. albicans ATCC90028, the “MIC C. albicans ATCC90028*” value was determined as 9 µM.
Turning to KLLKLLKKLVGALG-NH2 [compound 15], in data set [1], the “HDMEC (CC50)” value is 25 µM. In data set [2], the “HEK293 (CC50)” value amounted to 12 µM. Besides, in the data set with C. albicans ATCC90028, the “MIC C. albicans ATCC90028*” value came out at 21 µM.
For the substance KLLKLVKKVVGALG-NH2 [compound 13], in data set [1], the “HDMEC (CC50)” value worked out at 533 µM. Moreover, the “MIC C. albicans ATCC90028*” value in the data set with C. albicans ATCC90028 is over 22 µM.
Regarding WWKRWKKLRRIFLML, the “MIC against E. coli” value with E. coli is 4 µM. Besides, the “MIC against S. aureus” value in the data set on S. aureus was 4 µM.
